Activity calls are given as the source filed them.
Tests used:
HT-1080 = assay: HT1080 cell viability loss – fluorescence readout (AID 620); format: functional, cell-based; settings: Homo sapiens
[1] = Luminescence Cell-Based Dose Response HTS to Identify Inhibitors of 5'UTR Stem-Loop Driven Prion Protein mRNA Translation in H4 Neuroglioblastoma Cells. [Related pubchem assays: 1827 (Project Summary), 1813 (Primary HTS)]; format: functional
[2] = luciferase reporter signal suppression in cells – H4 neuroglioma cells, luminescence, dose response (AID 1990); format: functional, cell-based
[3] = viability loss in HEK293 cells – cell-based, plate reader, cherry-picked samples, cytotoxicity control, dose response (AID 743446); format: functional
[4] = Luminescence-based counterscreen assay for KLF5 inhibitors: dose response cell-based high throughput screening assay to identify cytotoxic compounds using the IEC-6 intestinal epithelial cell line. [Related pubchem assays: 1700 (Primary screen.), 1834 (Confirmation screen.), 1858 (Summary AID.), 1905 (Counterscreen.)]; format: functional
BJ [5] = assay: growth inhibition of engineered Ras-driven BJ cells – cell-based, alamar blue fluorescence, cherrypicked samples, dose response (AID 2631); format: functional; settings: Homo sapiens;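 note: confirmatory dose-response assay in RAS-dependent BJ fibroblasts engineered with TERT, LT and ST, with cytotoxicity read by fluorescence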
[6] = target: T1, Microphthalmia-associated transcription factor (Homo sapiens, UniProt O75030); assay: reducers of TRPM1 reporter luminescence, concentration series – cell-based, SK-MEL-5, cherry-picked, set 3, MITF inhibitor project, dose response (AID 493073); format: functional;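 note: SK-MEL-5 melanoma cells with luciferase driven by the MITF target TRPM1 promoter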
T1 sequence (O75030 whole entry): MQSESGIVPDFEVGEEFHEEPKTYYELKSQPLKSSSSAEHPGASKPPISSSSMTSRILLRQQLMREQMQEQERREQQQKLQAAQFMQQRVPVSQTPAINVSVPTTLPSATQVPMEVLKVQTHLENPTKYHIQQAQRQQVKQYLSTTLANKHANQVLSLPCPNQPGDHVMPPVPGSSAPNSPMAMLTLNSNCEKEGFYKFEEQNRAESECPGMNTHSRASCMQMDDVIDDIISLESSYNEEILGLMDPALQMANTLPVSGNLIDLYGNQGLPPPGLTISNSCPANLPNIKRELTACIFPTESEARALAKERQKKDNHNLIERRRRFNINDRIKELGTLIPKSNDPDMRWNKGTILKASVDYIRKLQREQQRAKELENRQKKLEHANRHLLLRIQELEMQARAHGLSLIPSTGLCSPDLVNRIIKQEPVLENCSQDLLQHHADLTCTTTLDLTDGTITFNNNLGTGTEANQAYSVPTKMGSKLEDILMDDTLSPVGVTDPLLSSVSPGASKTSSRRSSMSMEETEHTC

[7] = blockade of melanocortin 4 receptor signaling – cell-based, plate reader, cherry pick, counter-screen for LGR2 antagonist project, dose response (AID 743444); format: functional;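 note: transfected HEK 293 cells stimulated with alpha-MSH peptide; potency of inhibitors of the alpha-MSH evoked signal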
[8] = alpha-synuclein stem-loop luciferase translation blockers – H4 neuroglioma cells, luminescence, confirmation (AID 1988); format: functional, cell-based
[9] = target: Luciferin 4-monooxygenase (Photinus pyralis, UniProt P08659); assay: Counter Screen for Luciferase-based Assay Positives. [Related pubchem assays: 620, 618, 411 ]
Sequence of Luciferin 4-monooxygenase (P08659 whole entry): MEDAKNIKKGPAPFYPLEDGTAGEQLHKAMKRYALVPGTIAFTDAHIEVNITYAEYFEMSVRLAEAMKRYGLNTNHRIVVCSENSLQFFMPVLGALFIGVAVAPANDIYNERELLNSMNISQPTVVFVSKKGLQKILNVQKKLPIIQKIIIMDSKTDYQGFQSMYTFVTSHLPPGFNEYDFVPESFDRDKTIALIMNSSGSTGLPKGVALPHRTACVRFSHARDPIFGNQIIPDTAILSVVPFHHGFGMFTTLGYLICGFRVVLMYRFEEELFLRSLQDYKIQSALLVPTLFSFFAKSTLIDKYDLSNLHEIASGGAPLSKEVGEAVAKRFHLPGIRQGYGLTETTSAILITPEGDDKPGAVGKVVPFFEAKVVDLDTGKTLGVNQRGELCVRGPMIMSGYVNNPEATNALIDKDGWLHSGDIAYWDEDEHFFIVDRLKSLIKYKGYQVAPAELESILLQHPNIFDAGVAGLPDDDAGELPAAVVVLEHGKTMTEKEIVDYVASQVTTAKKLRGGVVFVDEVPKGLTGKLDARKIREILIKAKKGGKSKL

[10] = blockers of bursicon-stimulated LGR2 cAMP reporter – cell-based, HEK293, CRE-luciferase reporter, cherry pick, set 2, dose response (AID 743343); format: functional;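 note: transfected cells were stimulated with diluted bursicon conditioned medium after compound addition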
BJ [11] = assay: cells; format: functional, cell-based; settings: Homo sapiens
[12] = alpha-synuclein stem-loop translation blockers – luminescence, H4 neuroglioblastoma cells, dose confirmation, confirmation (AID 2454); format: functional, cell-based;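 note: H4 neuroglioblastoma cells carrying an alpha-synuclein 5'UTR luciferase reporter; potency for inhibition of the luciferase signal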
cells = format: functional, cell-based
BJ [13] = assay: BJ-TERT fibroblast viability loss – cell-based, RAS-independent, luminescence, dose response (AID 1933); format: functional; settings: Homo sapiens
[14] = target: Glyceraldehyde-3-phosphate dehydrogenase (Homo sapiens, UniProt P04406)
Sequence of Glyceraldehyde-3-phosphate dehydrogenase (P04406 whole entry): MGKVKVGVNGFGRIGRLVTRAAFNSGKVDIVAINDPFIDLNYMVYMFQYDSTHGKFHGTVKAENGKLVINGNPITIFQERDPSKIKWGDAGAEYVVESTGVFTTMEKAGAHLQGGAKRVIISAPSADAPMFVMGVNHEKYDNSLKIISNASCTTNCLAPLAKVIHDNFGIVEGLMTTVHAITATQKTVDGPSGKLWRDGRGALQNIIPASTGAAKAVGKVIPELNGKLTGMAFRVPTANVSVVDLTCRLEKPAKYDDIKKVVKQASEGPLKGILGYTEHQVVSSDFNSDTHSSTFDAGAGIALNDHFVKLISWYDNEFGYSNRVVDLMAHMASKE

[15] = A549 cell cytotoxicity, dose response, cytotoxicity control, plate reader, cherry-pick, antagonist series (AID 743412); format: functional, cell-based
BJ [16] = assay: BJ-TERT-LT-ST fibroblast viability loss – cell-based, RAS-independent, luminescence, dose response (AID 1935); format: functional; settings: Homo sapiens;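 note: BJ fibroblasts immortalized with TERT plus LT and ST oncogenes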
[17] = toxicity toward HepG2 liver cells – cell-based, plate reader, cherry-pick, antagonist series, cytotoxicity control, dose response (AID 743416); format: functional
[18] = luciferase reporter signal reduction – luminescence, H4-C neuroglioblastoma cells, dose response (AID 2458); format: functional, cell-based;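 note: H4 neuroglioblastoma cells stably carrying a luciferase reporter gene fusion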
[19] = DRD fibroblast viability loss – cell-based, non-viral oncogenic, luminescence, dose response (AID 1934); format: functional; settings: Homo sapiens
A-375 = assay: MITF: Counter assay: A375 proliferation Measured in Cell-Based System Using Plate Reader - 2084-03_Inhibitor_Dose_DryPowder_Activity. [Related pubchem assays (depositor defined):AID488944]; format: functional; settings: Homo sapiens
[20] = target: Neuropeptide Y receptor type 2 (Homo sapiens, UniProt P49146); format: functional, cell-based;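 note: HEK293 cells expressing the receptor and a CNG channel; stimulus was NPY near EC95 followed by isoproterenol to raise cAMP; antagonist potency measured as restoring cAMP signal that NPY suppresses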
Sequence of Neuropeptide Y receptor type 2 (P49146 whole entry): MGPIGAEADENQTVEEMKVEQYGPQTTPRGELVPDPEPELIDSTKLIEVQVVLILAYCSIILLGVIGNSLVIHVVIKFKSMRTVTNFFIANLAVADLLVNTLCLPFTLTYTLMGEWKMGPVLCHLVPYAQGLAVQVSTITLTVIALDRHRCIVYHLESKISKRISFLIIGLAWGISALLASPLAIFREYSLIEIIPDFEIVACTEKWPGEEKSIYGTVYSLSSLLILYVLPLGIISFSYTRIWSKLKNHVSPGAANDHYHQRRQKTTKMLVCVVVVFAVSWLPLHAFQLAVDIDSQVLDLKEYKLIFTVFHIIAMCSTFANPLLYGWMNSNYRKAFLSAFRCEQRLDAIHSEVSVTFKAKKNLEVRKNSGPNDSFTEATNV

[21] = target: Neuropeptide Y receptor type 1 (Homo sapiens, UniProt P25929); format: functional;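 note: HEK293 cells with a CNG channel challenged with NPY then isoproterenol; potency as antagonist that reverses NPY suppression of cAMP signal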
Sequence of Neuropeptide Y receptor type 1 (P25929 whole entry): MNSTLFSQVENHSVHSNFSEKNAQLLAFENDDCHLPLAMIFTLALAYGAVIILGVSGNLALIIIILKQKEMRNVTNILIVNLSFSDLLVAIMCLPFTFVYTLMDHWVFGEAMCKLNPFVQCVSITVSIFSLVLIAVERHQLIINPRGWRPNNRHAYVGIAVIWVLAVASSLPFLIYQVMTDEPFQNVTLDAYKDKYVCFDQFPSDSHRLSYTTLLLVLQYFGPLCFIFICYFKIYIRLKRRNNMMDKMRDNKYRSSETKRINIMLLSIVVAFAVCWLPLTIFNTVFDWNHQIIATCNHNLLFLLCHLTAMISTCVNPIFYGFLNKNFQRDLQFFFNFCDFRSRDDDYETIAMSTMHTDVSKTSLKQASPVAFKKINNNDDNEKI

[22] = target: T2, Alkaline phosphatase, tissue-nonspecific isozyme (Homo sapiens, UniProt P05186)
T2 sequence (P05186 whole entry): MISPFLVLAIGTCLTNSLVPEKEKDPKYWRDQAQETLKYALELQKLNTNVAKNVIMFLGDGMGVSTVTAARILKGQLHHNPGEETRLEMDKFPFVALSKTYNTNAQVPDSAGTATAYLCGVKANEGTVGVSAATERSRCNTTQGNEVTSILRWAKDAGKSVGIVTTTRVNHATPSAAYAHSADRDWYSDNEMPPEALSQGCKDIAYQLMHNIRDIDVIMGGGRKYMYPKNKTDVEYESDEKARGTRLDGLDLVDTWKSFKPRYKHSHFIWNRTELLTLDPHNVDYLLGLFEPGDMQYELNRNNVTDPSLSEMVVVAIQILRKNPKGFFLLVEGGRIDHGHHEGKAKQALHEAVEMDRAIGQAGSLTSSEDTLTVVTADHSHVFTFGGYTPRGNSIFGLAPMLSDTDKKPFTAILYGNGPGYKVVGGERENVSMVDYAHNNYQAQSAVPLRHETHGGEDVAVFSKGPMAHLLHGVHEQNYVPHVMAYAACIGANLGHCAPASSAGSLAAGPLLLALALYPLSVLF

[23] = mRNA 3' processing disruption, beta-gal signal increase – luminescence, S. cerevisiae SKY197-pL101, dose response (AID 2525); format: functional, cell-based
[24] = Luminescence Cell-Based Dose Confirmation HTS to Identify Inhibitors of Polyadenylation.; format: functional
[25] = target: Mothers against decapentaplegic homolog 3 (Homo sapiens, UniProt P84022); assay: blockers of Smad3 complex formation in lysate – cell lysate, secondary confirmation, chemiluminescent ELISA, HEK293 lysate, dose response (AID 1058); format: functional
Sequence of Mothers against decapentaplegic homolog 3 (P84022 whole entry): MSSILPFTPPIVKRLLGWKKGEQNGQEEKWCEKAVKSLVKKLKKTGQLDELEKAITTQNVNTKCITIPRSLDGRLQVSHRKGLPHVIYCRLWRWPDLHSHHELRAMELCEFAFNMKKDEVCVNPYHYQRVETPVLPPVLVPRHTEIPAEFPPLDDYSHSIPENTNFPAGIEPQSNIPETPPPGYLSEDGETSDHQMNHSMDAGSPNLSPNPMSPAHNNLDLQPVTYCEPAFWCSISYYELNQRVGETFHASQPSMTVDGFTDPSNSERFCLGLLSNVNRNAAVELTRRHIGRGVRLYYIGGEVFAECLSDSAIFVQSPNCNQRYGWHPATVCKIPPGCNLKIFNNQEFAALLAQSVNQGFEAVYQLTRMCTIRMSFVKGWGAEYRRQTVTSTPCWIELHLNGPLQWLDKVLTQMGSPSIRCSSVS

Cc1ccc(-c2nnc(SCC(=O)Nc3ccccc3F)o2)cc1
EC50 (HT-1080): > 50 µM (not active)
EC50 [1]: < 0.1 µM (active)
EC50 [2]: < 0.195 µM (active)
AC50 [3]: 9.16 µM (active)
IC50 [4]: 34.7 µM (not active)
EC50 (BJ [5]): > 133 µM (inactive)
AC50 [6]: 2.3 µM (active)
AC50 [7]: 14.7 µM (active)
EC50 [8]: < 0.1 µM (active)
EC50 [9]: 9.52 µM (active)
AC50 [10]: 7.12 µM (active)
EC50 (BJ [11]): 6.59 µM (active)
EC50 [12]: > 12 µM (inconclusive)
EC50 (cells): 0.839 µM (active)
EC50 (BJ [13]): 10.2 µM (active)
IC50 [14]: > 100 µM (not active)
AC50 [15]: 8.7 µM (active)
EC50 (BJ [16]): 21.7 µM (active)
AC50 [17]: 12.4 µM (active)
EC50 [18]: > 12 µM (inconclusive)
EC50 [19]: 7.36 µM (inconclusive)
AC50 (A-375): 33.7 µM (active)

COc1ccc(Cn2c(/C=C/c3ccccc3)nc3ccccc32)cc1
IC50 [20]: 5.51 µM (active)
IC50 [21]: 4.02 µM (active)

COc1cc(C(=S)N2CCOCC2)ccc1OC(=O)/C=C/c1ccco1
EC50 [22]: > 100 µM (not active)

O=C(Oc1c(-c2ccccc2)c(=O)n2c3c(cccc13)CC2)c1cccc([N+](=O)[O-])c1
EC50 [1]: 12.3 µM (active)
EC50 [2]: 12 µM (active)
EC50 [23]: 3.89 µM (active)
EC50 [8]: 13 µM (active)
EC50 [24]: 9.78 µM (active)

Oc1cc2c(cc1C(c1ccc3c(c1)OCO3)N1CCCCC1)OCO2 (stereo unspecified)
IC50 [25]: > 40 µM (not active)

Reference: ChEMBL document CHEMBL1201862, “PubChem BioAssay data set” (2004)
